Laboratory results as given in US20200069691A1, “HETEROCYCLIC COMPOUNDS AS HIV PROTEASE INHIBITORS” (Merck Sharp & Dohme Corp., priority 2016, published 2020).
pIC50: −log10 of the molar value.

Target: T1, wild-type HIV-1 protease (Human immunodeficiency virus type 1 group M subtype B, UniProt P04585)
T1 construct: Escherichia coli expressed wild-type HIV-1 protease protein
Assay: Assay for Inhibition of Microbial Expressed HIV Protease (peptide substrate cleavage, LC-MS/MS readout)
Assay type: biochemical
Settings: E. coli expressed wild-type HIV-1 protease, mean of at least two independent experiments, read-out: HIV Pr Enzyme HIV1 PR IC50
Procedure, shortened: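 Cleavage of Val-Ser-Gln-Asn-(β-naphthyl)Ala-Pro-Ile-Val (400 μM) by recombinant HIV-1 protease ([…]) ran 1 h at 30 °C after a 30 min room-temperature inhibitor preincubation in 50 mM sodium acetate pH 5.5. Product peak areas by LC-MS/MS gave inhibition; values average at least two independent runs.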

Row | SMILES | pIC50
1 | CC(C)CCC1(c2ccc(F)cc2)NC(=N)N(Cc2ccc(C(F)(F)F)c(C(=O)N3C[C@@H]4C(=O)NC(=O)[C@]4(c4ccccc4)C3)c2)C1=O (stereo partly drawn) [Compound 159, (3aR,6aR)-5-{[5-{[4-(4-fluorophenyl)-2-imino-4-(3-methylbutyl)-5-oxoimidazolidin-1-yl]methyl}-2-(trifluoromethyl)-phenyl]carbonyl}-3a-phenyltetrahydropyrrolo [3,4-c]pyrrole-1,3 (2H,3aH)-dione] | 7.80
2 | N=C1NC(c2ccccc2)(c2ccccc2)C(=O)N1Cc1ccc(C(F)(F)F)c(C(=O)N2CCNC(=O)C2)c1 [Compound 160, 4-({5-[(2-imino-5-oxo-4,4-diphenylimidazolidin-1-yl)methyl]-2-(trifluoromethyl)phenyl}-carbonyl)piperazin-2-one] | 7.69
3 | COC(=O)N1CCN(C(=O)c2cc(CN3C(=N)NC(c4ccccc4)(c4ccccc4)C3=O)ccc2C(F)(F)F)CC1 [Compound 161, methyl 4-({5-[(2-imino-5-oxo-4,4-diphenylimidazolidin-1-yl)methyl]-2-(trifluoromethyl)phenyl}-carbonyl)piperazine-1-carboxylate] | 7.60
4 | CC(C)CCC1(c2ccccc2)NC(=N)N(Cc2ccc(C(F)(F)F)c(C(=O)N3CCC(F)(F)C3)c2)C1=O (stereo not shown) [Compound 162, 3-{3-[(3,3-difluoropyrrolidin-1-yl)carbonyl]-4-(trifluoromethyl)-benzyl}-2-imino-5-(3-methylbutyl)-5-phenylimidazolidin-4-one] | 7.49
5 | CC(C)CCC1(c2ccc(F)cc2)NC(=N)N(Cc2ccc(C(F)(F)F)c(C(=O)N3CC[C@@]4(c5ccccc5)NOC[C@H]4C3)c2)C1=O (stereo partly drawn) [Compound 163, 5-(4-fluorophenyl)-2-imino-5-(3-methylbutyl)-3-[3-{[(3aS,7aR)-7a-phenylhexahydro-isoxazolo[4,3-c]pyridin-5(3H)-yl]carbonyl}-4-(trifluoromethyl)benzyl] imidazolidin-4-one] | 7.48
6 | CC(C)CCC1(c2ccc(F)cc2)NC(=N)N(Cc2ccc(C(F)(F)F)c(C(=O)N3CCc4c(cnn4-c4ccccc4)C3)c2)C1=O (stereo not shown) [Compound 164, 5-(4-fluorophenyl)-2-imino-5-(3-methylbutyl)-3-{3-[(1-phenyl-1,4,6,7-tetrahydro-5H-pyrazolo[4,3-c]pyridin-5-yl)carbonyl]-4-(trifluoromethyl)benzyl} imidazolidin-4-one] | 7.47
7 | COc1ccc2c(c1)CCN(C(=O)c1cc(CN3C(=N)NC(c4ccc(F)cc4)(c4ccc(F)cc4)C3=O)ccc1C(F)(F)F)CC2 [Compound 165, 5.5-bis(4-fluorophenyl)-2-imino-3-{3-[(7-methoxy-1,2,4,5-tetrahydro-3H-3-benzazepin-3-yl)carbonyl]-4-(trifluoromethyl)benzyl} imidazolidin-4-one] | 7.47
8 | CC(C)CCC1(c2ccccc2)NC(=N)N(Cc2ccc(C(F)(F)F)c(C(=O)N3CCC3)c2)C1=O (stereo not shown) [Compound 166, 3-[3-(azetidin-1-ylcarbonyl)-4-(trifluoromethyl)benzyl]-2-imino-5-(3-methylbutyl)-5-phenylimidazolidin-4-one] | 7.46
9 | CC(C)CCC1(c2ccc(F)cc2)NC(=N)N(Cc2ccc(C(F)(F)F)c(C(=O)N3Cc4cncnc4C3)c2)C1=O (stereo not shown) [Compound 167, 3-[3-(5,7-dihydro-6H-pyrrolo[3,4-d]pyrimidin-6-ylcarbonyl)-4-(trifluoromethyl)benzyl]-5-(4-fluorophenyl)-2-imino-5-(3-methylbutyl)imidazolidin-4-one] | 7.43
10 | CC(C)CCC1(c2ccc(F)cc2)NC(=N)N(Cc2ccc(C(F)(F)F)c(C(=O)N3Cc4nccnc4C3)c2)C1=O (stereo not shown) [Compound 168, 3-[3-(5,7-dihydro-6H-pyrrolo[3,4-b]pyrazin-6-ylcarbonyl)-4-(trifluoromethyl)benzyl]-5-(4-fluorophenyl)-2-imino-5-(3-methylbutyl)imidazolidin-4-one] | 7.41
11 | CC(C)CCC1(c2ccc(F)cc2)NC(=N)N(Cc2ccc(C(F)(F)F)c(C(=O)N3C[C@H]4OCc5cnnn5[C@H]4C3)c2)C1=O (stereo partly shown) [Compound 169] | 7.41
12 | CC(C)CCC1(c2ccccc2)NC(=N)N(Cc2ccc(C(F)(F)F)c(C(=O)N3CCCC3)c2)C1=O (stereo not shown) [Compound 170, 2-imino-5-(3-methylbutyl)-5-phenyl-3-[3-(pyrrolidin-1-ylcarbonyl)-4-(trifluoromethyl)benzyl] imidazolidin-4-one] | 7.40
13 | N=C1NC(c2ccccc2)(c2ccccc2)C(=O)N1Cc1ccc(C(F)(F)F)c(C(=O)N2CCN(c3ncccn3)CC2)c1 [Compound 171, 2-imino-5,5-diphenyl-3-{3-[(4-pyrimidin-2-ylpiperazin-1-yl)carbonyl]-4-(trifluoromethyl)-benzyl}imidazolidin-4-one] | 7.28
14 | N=C1NC(c2ccc(F)cc2)(c2ccc(F)cc2)C(=O)N1Cc1ccc(C(F)(F)F)c(C(=O)N2CCC(F)(F)C2)c1 [Compound 172, 3-{3-[(3,3-difluoropyrrolidin-1-yl)carbonyl]-4-(trifluoromethyl)-benzyl}-5,5-bis(4-fluorophenyl)-2-iminoimidazolidin-4-one] | 7.27
15 | N=C1NC(c2ccc(F)cc2)(c2ccc(F)cc2)C(=O)N1Cc1ccc(C(F)(F)F)c(C(=O)N2CCC2)c1 [Compound 173, 3-[3-(azetidin-1-ylcarbonyl)-4-(trifluoromethyl)benzyl]-5,5-bis(4-fluorophenyl)-2-iminoimidazolidin-4-one] | 7.27
16 | CC(C)C[C@@]1(c2ccccc2)NC(=N)N(Cc2ccc(C(F)(F)F)c(C(=O)N3Cc4nccnc4C3)c2)C1=O [Compound 174, (5S)-3-[3-(5,7-dihydro-6H-pyrrolo[3,4-b]pyrazin-6-ylcarbonyl)-4-(trifluoromethyl)-benzyl]-2-imino-5-(2-methylpropyl)-5-phenylimidazolidin-4-one] | 7.26
17 | CC(C)CCC1(c2ccc(F)cc2)NC(=N)N(Cc2ccc(C(F)(F)F)c(C(=O)N3C[C@@H]4ON=C(Nc5ccccc5)[C@@H]4C3)c2)C1=O (stereo partly shown) [Compound 175] | 7.22
18 | CC(C)CCC1(c2ccccc2)NC(=N)N(Cc2ccc(C(F)(F)F)c(C(=O)N3CCC(C)(C)C3)c2)C1=O (stereo not shown) [Compound 176, 3-{3-[(3,3-dimethylpyrrolidin-1-yl)carbonyl]-4-(trifluoromethyl)benzyl}-2-imino-5-(3-methylbutyl)-5-phenylimidazolidin-4-one] | 7.20
19 | CC(C)CC1(c2ccccc2)NC(=N)N(Cc2ccc(C(F)(F)F)c(C(=O)N3CCC(F)(F)C3)c2)C1=O (stereo not shown) [Compound 177, 3-{3-[(3,3-difluoropyrrolidin-1-yl)carbonyl]-4-(trifluoromethyl)benzyl}-2-imino-5-(2-methylpropyl)-5-phenylimidazolidin-4-one] | 7.15
20 | CC(=O)NCc1cc2c(o1)CCN(C(=O)c1cc(CN3C(=N)NC(CCC(C)C)(c4ccc(F)cc4)C3=O)ccc1C(F)(F)F)C2 (stereo not shown) [Compound 178, N-[(5-{[5-{[4-(4-fluorophenyl)-2-imino-4-(3-methylbutyl)-5-oxoimidazolidin-1-yl]methyl}-2-(trifluoromethyl)phenyl]carbonyl}-4,5,6,7-tetrahydrofuro[3,2-c]pyridin-2-yl)methyl]acetamide] | 7.15
21 | CC(C)CC1(c2ccccc2)NC(=N)N(Cc2ccc(C(F)(F)F)c(C(=O)N3CCC3)c2)C1=O (stereo not shown) [Compound 179, 3-[3-(azetidin-1-ylcarbonyl)-4-(trifluoromethyl)benzyl]-2-imino-5-(2-methylpropyl)-5-phenylimidazolidin-4-one] | 7.10
22 | N=C1NC(c2ccc(F)cc2)(c2ccc(F)cc2)C(=O)N1Cc1ccc(C(F)(F)F)c(C(=O)N2CCCC2)c1 [Compound 180, 5,5-bis(4-fluorophenyl)-2-imino-3-[3-(pyrrolidin-1-ylcarbonyl)-4-(trifluoromethyl)benzyl] imidazolidin-4-one] | 7.10
23 | CC1(C)CCN(C(=O)c2cc(CN3C(=N)NC(c4ccc(F)cc4)(c4ccc(F)cc4)C3=O)ccc2C(F)(F)F)C1 [Compound 181, 3-{3-[(3,3-dimethylpyrrolidin-1-yl)carbonyl]-4-(trifluoromethyl)benzyl}-5,5-bis(4-fluorophenyl)-2-iminoimidazolidin-4-one] | 7.05
24 | N#Cc1ncc2c(n1)CN(C(=O)c1cccc(CN3C(=N)NC(c4ccc(F)cc4)(c4ccc(F)cc4)C3=O)c1)C2 [Compound 182, 6-[(3-{[4,4-bis(4-fluorophenyl)-2-imino-5-oxoimidazolidin-1-yl]methyl}phenyl)carbonyl]-6,7-dihydro-5H-pyrrolo[3,4-d]pyrimidine-2-carbonitrile] | 8.77
25 | COC(=O)Nc1ncc2c(n1)CN(C(=O)c1cccc(CN3C(=N)N[C@](CCC(C)C)(c4ccccc4)C3=O)c1)C2 [Compound 183, methyl {6-[(3-{[(4R)-2-imino-4-(3-methylbutyl)-5-oxo-4-phenylimidazolidin-1-yl]methyl}phenyl)carbonyl]-6,7-dihydro-5H-pyrrolo[3,4-d]pyrimidin-2-yl}carbamate] | 8.65
26 | N=C1NC(c2ccccc2)(c2ccccc2)C(=O)N1Cc1cccc(C(=O)N2Cc3[nH]nc(C(F)(F)F)c3C2)c1 [Compound 184, 2-imino-5,5-diphenyl-3-(3-{[3-(trifluoromethyl)-4,6-dihydropyrrolo[3,4-c]pyrazol-5(1H)-yl]carbonyl}benzyl) imidazolidin-4-one] | 8.56
27 | C[C@H](c1cccc(C(=O)N2Cc3nccnc3C2)c1)N1C(=N)NC(c2ccccc2)(c2ccccc2)C1=O [Compound 185, 3-{(1R)-1-[3-(5,7-dihydro-6H-pyrrolo[3,4-b]pyrazin-6-ylcarbonyl)phenyl]ethyl}-2-imino-5,5-diphenylimidazolidin-4-one] | 7.39
28 | C[C@H](c1cccc(C(=O)N2Cc3nccnc3C2)c1)N1C(=N)NC(c2ccc(F)cc2)(c2ccc(F)cc2)C1=O [Compound 186, 3-{(1R)-1-[3-(5,7-dihydro-6H-pyrrolo[3,4-b]pyrazin-6-ylcarbonyl)phenyl]ethyl}-5,5-bis(4-fluorophenyl)-2-iminoimidazolidin-4-one] | 8.49
